Data published in ChEMBL document CHEMBL1201861, “Genomics of Drug Sensitity in Cancer screening data, Wellcome Trust Sanger Institute”.
Counter-ions that a name gives are not always drawn.

Experiments:
Assay in all cases: cells
[1] = system: COLO-824; type: functional, cell-based, Homo sapiens; conditions: Homo sapiens, COLO-824
Description: SANGER: Inhibition of human COLO-824 cell growth in a cell viability assay.

[2] = system: CTB-1; type: functional, cell-based, Homo sapiens; conditions: Homo sapiens, CTB-1
Description: SANGER: Inhibition of human CTB-1 cell growth in a cell viability assay.

[3] = system: CW-2; type: functional, cell-based, Homo sapiens; conditions: Homo sapiens, CW-2;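 further: growth inhibition of CW-2 cells, read out by a cell viability assay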
Description: SANGER: Inhibition of human CW-2 cell growth in a cell viability assay.

[4] = system: D-263MG; type: functional, cell-based, Homo sapiens; conditions: Homo sapiens, D-263MG
Description: SANGER: Inhibition of human D-263MG cell growth in a cell viability assay.

[5] = system: DMS-79; type: functional, cell-based, Homo sapiens; conditions: Homo sapiens, DMS-79;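 further: growth inhibition measured with a cell viability assay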
Description: SANGER: Inhibition of human DMS-79 cell growth in a cell viability assay.

[6] = system: EW-11; type: functional, cell-based, Homo sapiens; conditions: Homo sapiens, EW-11;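 further: growth inhibition of human EW-11 cells, measured with a cell viability assay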
Description: SANGER: Inhibition of human EW-11 cell growth in a cell viability assay.

[7] = system: GOTO; type: functional, cell-based, Homo sapiens; conditions: Homo sapiens, GOTO;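 further: growth inhibition of GOTO cells, read out by a cell viability assay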
Description: SANGER: Inhibition of human GOTO cell growth in a cell viability assay.

[8] = system: HAL-01; type: functional, cell-based, Homo sapiens; conditions: Homo sapiens, HAL-01;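 further: growth inhibition of human HAL-01 cells, read out with a cell viability assay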
Description: SANGER: Inhibition of human HAL-01 cell growth in a cell viability assay.

[9] = system: HCC1187; type: functional, cell-based, Homo sapiens; conditions: Homo sapiens, HCC1187;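 further: growth inhibition of HCC1187 cells, read out with a cell viability assay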
Description: SANGER: Inhibition of human HCC1187 cell growth in a cell viability assay.

[10] = system: HuTu80; type: functional, cell-based, Homo sapiens, HUTU-80; conditions: Homo sapiens, HuTu80;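 further: growth inhibition of HuTu80 human cells, determined with a cell viability readout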
Description: SANGER: Inhibition of human HUTU-80 cell growth in a cell viability assay.

[11] = system: IA-LM; type: functional, cell-based, Homo sapiens; conditions: Homo sapiens, IA-LM;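 further: cell viability assay measuring growth inhibition of human IA-LM cells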
Description: SANGER: Inhibition of human IA-LM cell growth in a cell viability assay.

[12] = system: IST-MES1; type: functional, cell-based, Homo sapiens; conditions: Homo sapiens, IST-MES1;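 further: growth inhibition of IST-MES1 cells, measured with a cell viability assay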
Description: SANGER: Inhibition of human IST-MES1 cell growth in a cell viability assay.

[13] = system: J-RT3-T3-5; type: functional, cell-based, Homo sapiens; conditions: Homo sapiens, J-RT3-T3-5;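 further: cell viability assay measuring growth inhibition of human J-RT3-T3-5 cells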
Description: SANGER: Inhibition of human J-RT3-T3-5 cell growth in a cell viability assay.

[14] = system: JAR; type: functional, cell-based, Homo sapiens; conditions: Homo sapiens, JAR;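 further: growth inhibition of human JAR cells determined with a cell viability assay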
Description: SANGER: Inhibition of human JAR cell growth in a cell viability assay.

[15] = system: KARPAS-45; type: functional, cell-based, Homo sapiens; conditions: Homo sapiens, KARPAS-45;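 further: inhibition of cell line growth, read out through a viability assay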
Description: SANGER: Inhibition of human KARPAS-45 cell growth in a cell viability assay.

[16] = system: KLE; type: functional, cell-based, Homo sapiens; conditions: Homo sapiens, KLE;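 further: growth inhibition of human KLE cells, read out with a cell viability assay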
Description: SANGER: Inhibition of human KLE cell growth in a cell viability assay.

[17] = system: KY821; type: functional, cell-based, Homo sapiens; conditions: Homo sapiens, KY821;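 further: growth inhibition of human KY821 cells, read out by a cell viability assay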
Description: SANGER: Inhibition of human KY821 cell growth in a cell viability assay.

[18] = system: L-363; type: functional, cell-based, Homo sapiens; conditions: Homo sapiens, L-363
Description: SANGER: Inhibition of human L-363 cell growth in a cell viability assay.

[19] = system: LB373-MEL-D; type: functional, cell-based, Homo sapiens; conditions: Homo sapiens, LB373-MEL-D;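 further: growth inhibition of the cell line, read out in a cell viability assay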
Description: SANGER: Inhibition of human LB373-MEL-D cell growth in a cell viability assay.

[20] = system: LNCaP-Clone-FGC; type: functional, cell-based, Homo sapiens; conditions: Homo sapiens, LNCaP-Clone-FGC
Description: SANGER: Inhibition of human LNCaP-Clone-FGC cell growth in a cell viability assay.

[21] = system: LS-123; type: functional, cell-based, Homo sapiens; conditions: Homo sapiens, LS-123
Description: SANGER: Inhibition of human LS-123 cell growth in a cell viability assay.

[22] = system: LU-139; type: functional, cell-based, Homo sapiens; conditions: Homo sapiens, LU-139
Description: SANGER: Inhibition of human LU-139 cell growth in a cell viability assay.

[23] = system: MEG-01; type: functional, cell-based, Homo sapiens; conditions: Homo sapiens, MEG-01;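 further: growth inhibition of MEG-01 cells, read out by a cell viability assay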
Description: SANGER: Inhibition of human MEG-01 cell growth in a cell viability assay.

[24] = system: MFM-223; type: functional, cell-based, Homo sapiens; conditions: Homo sapiens, MFM-223
Description: SANGER: Inhibition of human MFM-223 cell growth in a cell viability assay.

[25] = system: ML-2; type: functional, cell-based, Homo sapiens; conditions: Homo sapiens, ML-2;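 further: growth inhibition of ML-2 cells, measured with a cell viability readout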
Description: SANGER: Inhibition of human ML-2 cell growth in a cell viability assay.

[26] = system: MOLT-16; type: functional, cell-based, Homo sapiens; conditions: Homo sapiens, MOLT-16;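 further: growth inhibition of human MOLT-16 cells, read out with a cell viability assay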
Description: SANGER: Inhibition of human MOLT-16 cell growth in a cell viability assay.

[27] = system: NB12; type: functional, cell-based, Homo sapiens; conditions: Homo sapiens, NB12;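 further: growth inhibition of human NB12 cells, read out by a cell viability assay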
Description: SANGER: Inhibition of human NB12 cell growth in a cell viability assay.

[28] = system: NCI-H526; type: functional, cell-based, Homo sapiens; conditions: Homo sapiens, NCI-H526;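 further: growth inhibition of the human NCI-H526 cell line, measured by a cell viability assay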
Description: SANGER: Inhibition of human NCI-H526 cell growth in a cell viability assay.

[29] = system: NCI-N87; type: functional, cell-based, Homo sapiens; conditions: Homo sapiens, NCI-N87;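 further: growth inhibition of human NCI-N87 cells, read out with a cell viability assay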
Description: SANGER: Inhibition of human NCI-N87 cell growth in a cell viability assay.

[30] = system: SNU-5; type: functional, cell-based, Homo sapiens; conditions: Homo sapiens, SNU-5;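 further: cell viability readout used to measure growth inhibition in human NCI-SNU-5 cells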
Description: SANGER: Inhibition of human NCI-SNU-5 cell growth in a cell viability assay.

[31] = system: NH-12; type: functional, cell-based, Homo sapiens; conditions: Homo sapiens, NH-12;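 further: growth inhibition of NH-12 cells, read out with a cell viability assay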
Description: SANGER: Inhibition of human NH-12 cell growth in a cell viability assay.

[32] = system: NMC-G1; type: functional, cell-based, Homo sapiens; conditions: Homo sapiens, NMC-G1;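 further: growth inhibition of the NMC-G1 cell line, measured with a cell viability read-out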
Description: SANGER: Inhibition of human NMC-G1 cell growth in a cell viability assay.

[33] = system: ONS-76; type: functional, cell-based, Homo sapiens; conditions: Homo sapiens, ONS-76;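 further: growth inhibition of human ONS-76 cells, read out with a cell viability assay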
Description: SANGER: Inhibition of human ONS-76 cell growth in a cell viability assay.

[34] = system: RCC10RGB; type: functional, cell-based, Homo sapiens; conditions: Homo sapiens, RCC10RGB;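 further: growth inhibition of human RCC10RGB cells, read out by a cell viability assay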
Description: SANGER: Inhibition of human RCC10RGB cell growth in a cell viability assay.

[35] = system: RH-1; type: functional, cell-based, Homo sapiens; conditions: Homo sapiens, RH-1;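 further: growth inhibition of human RH-1 cells, read out with a cell viability assay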
Description: SANGER: Inhibition of human RH-1 cell growth in a cell viability assay.

[36] = system: RPMI-8866; type: functional, cell-based, Homo sapiens; conditions: Homo sapiens, RPMI-8866
Description: SANGER: Inhibition of human RPMI-8866 cell growth in a cell viability assay.

[37] = system: SK-N-FI; type: functional, cell-based, Homo sapiens; conditions: Homo sapiens, SK-N-FI;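 further: cell viability assay measuring growth inhibition of human SK-N-FI cells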
Description: SANGER: Inhibition of human SK-N-FI cell growth in a cell viability assay.

[38] = system: SK-NEP-1; type: functional, cell-based, Homo sapiens; conditions: Homo sapiens, SK-NEP-1;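 further: growth inhibition of human SK-NEP-1 cells, read out by a cell viability assay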
Description: SANGER: Inhibition of human SK-NEP-1 cell growth in a cell viability assay.

[39] = system: SNU-C2B; type: functional, cell-based, Homo sapiens; conditions: Homo sapiens, SNU-C2B;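 further: cell viability readout used to measure compound-driven suppression of SNU-C2B cell proliferation, IC50 marking half-maximal growth inhibition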
Description: SANGER: Inhibition of human SNU-C2B cell growth in a cell viability assay.

[40] = system: TE-1; type: functional, cell-based, Homo sapiens; conditions: Homo sapiens, TE-1;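 further: growth inhibition of the human TE-1 cell line, read out with a cell viability assay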
Description: SANGER: Inhibition of human TE-1 cell growth in a cell viability assay.

[41] = system: 8-MG-BA; type: functional, cell-based, Homo sapiens; conditions: Homo sapiens, 8-MG-BA;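 further: growth inhibition of 8-MG-BA cells, read out with a cell viability assay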
Description: SANGER: Inhibition of human 8-MG-BA cell growth in a cell viability assay.

[42] = system: BB65-RCC; type: functional, cell-based, Homo sapiens; conditions: Homo sapiens, BB65-RCC;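 further: growth inhibition of the cell line, measured with a cell viability assay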
Description: SANGER: Inhibition of human BB65-RCC cell growth in a cell viability assay.

[43] = system: BE-13; type: functional, cell-based, Homo sapiens; conditions: Homo sapiens, BE-13;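 further: growth inhibition of human BE-13 cells, measured with a cell viability assay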
Description: SANGER: Inhibition of human BE-13 cell growth in a cell viability assay.

[44] = system: BV-173; type: functional, cell-based, Homo sapiens; conditions: Homo sapiens, BV-173
Description: SANGER: Inhibition of human BV-173 cell growth in a cell viability assay.

[45] = system: Becker; type: functional, cell-based, Homo sapiens; conditions: Homo sapiens, Becker;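 further: growth inhibition of Becker cells, read out with a cell viability assay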
Description: SANGER: Inhibition of human Becker cell growth in a cell viability assay.

[46] = system: C8166; type: functional, cell-based, Homo sapiens; conditions: Homo sapiens, C8166;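 further: growth inhibition of human C8166 cells measured by a cell viability assay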
Description: SANGER: Inhibition of human C8166 cell growth in a cell viability assay.

[47] = system: TE-6; type: functional, cell-based, Homo sapiens; conditions: Homo sapiens, TE-6;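 further: growth inhibition of TE-6 cells, read out with a cell viability assay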
Description: SANGER: Inhibition of human TE-6 cell growth in a cell viability assay.

[48] = system: COLO-684; type: functional, cell-based, Homo sapiens; conditions: Homo sapiens, COLO-684
Description: SANGER: Inhibition of human COLO-684 cell growth in a cell viability assay.

## COC1=CC(c2cc3ccccc3[nH]2)=N/C1=C\c1[nH]c(C)cc1C [OBATOCLAX MESYLATE]
[1]
  IC50: 678 nM
[2]
  IC50: 75.9 nM
[3]
  IC50: > 16 µM
[4]
  IC50: 3.15 µM
[5]
  IC50: > 16 µM
[6]
  IC50: 5.18 µM
[7]
  IC50: 4.3 µM
[8]
  IC50: < 62.5 nM
[9]
  IC50: 1710 nM
[10]
  IC50: 104 nM
[11]
  IC50: 60.5 nM
[12]
  IC50: 286 nM
[13]
  IC50: 118 nM
[14]
  IC50: > 16 µM
[15]
  IC50: < 62.5 nM
[16]
  IC50: 1660 nM
[17]
  IC50: > 16 µM
[18]
  IC50: 46.8 nM
[19]
  IC50: 42.3 nM
[20]
  IC50: 2300 nM
[21]
  IC50: 87.2 nM
[22]
  IC50: 6.08 µM
[23]
  IC50: 454 nM
[24]
  IC50: 3.37 µM
[25]
  IC50: 229 nM
[26]
  IC50: 1730 nM
[27]
  IC50: 725 nM
[28]
  IC50: 2630 nM
[29]
  IC50: 4.39 µM
[30]
  IC50: 856 nM
[31]
  IC50: 540 nM
[32]
  IC50: 319 nM
[33]
  IC50: 20.4 nM
[34]
  IC50: 1140 nM
[35]
  IC50: 222 nM
[36]
  IC50: 133 nM
[37]
  IC50: 14.9 µM
[38]
  IC50: 1820 nM
[39]
  IC50: 868 nM
[40]
  IC50: 144 nM
[41]
  IC50: 78 nM
[42]
  IC50: 175 nM
[43]
  IC50: 129 nM
[44]
  IC50: 1830 nM
[45]
  IC50: 1640 nM
[46]
  IC50: 474 nM
[47]
  IC50: 1040 nM
[48]
  IC50: 656 nM

## CCC/C=C/C=C/C(=O)O[C@H]1/C(=C/C(=O)OC)C[C@H]2C[C@H]([C@@H](C)O)OC(=O)C[C@H](O)C[C@@H]3C[C@H](OC(C)=O)C(C)(C)[C@](O)(C[C@@H]4C/C(=C/C(=O)OC)C[C@H](/C=C/C(C)(C)[C@]1(O)O2)O4)O3 [BRYOSTATIN 1]
[1]
  IC50: > 8 nM
[2]
  IC50: > 8 nM
[3]
  IC50: > 0.008 µM
[4]
  IC50: > 0.008 µM
[5]
  IC50: > 0.008 µM
[6]
  IC50: > 0.008 µM
[7]
  IC50: > 0.008 µM
[8]
  IC50: > 8 nM
[9]
  IC50: > 8 nM
[10]
  IC50: > 8 nM
[11]
  IC50: > 8 nM
[12]
  IC50: > 8 nM
[13]
  IC50: > 8 nM
[14]
  IC50: > 0.008 µM
[15]
  IC50: > 8 nM
[16]
  IC50: > 8 nM
[17]
  IC50: > 0.008 µM
[18]
  IC50: > 8 nM
[19]
  IC50: > 8 nM
[20]
  IC50: > 8 nM
[21]
  IC50: > 8 nM
[22]
  IC50: > 0.008 µM
[23]
  IC50: > 8 nM
[24]
  IC50: > 0.008 µM
[25]
  IC50: > 8 nM
[26]
  IC50: > 8 nM
[27]
  IC50: > 8 nM
[28]
  IC50: > 8 nM
[29]
  IC50: > 0.008 µM
[30]
  IC50: > 8 nM
[31]
  IC50: > 8 nM
[32]
  IC50: > 8 nM
[33]
  IC50: > 8 nM
[34]
  IC50: > 8 nM
[35]
  IC50: > 8 nM
[36]
  IC50: > 8 nM
[37]
  IC50: > 0.008 µM
[38]
  IC50: > 8 nM
[39]
  IC50: > 8 nM
[40]
  IC50: > 8 nM
[41]
  IC50: > 8 nM
[42]
  IC50: > 8 nM
[43]
  IC50: > 8 nM
[44]
  IC50: > 8 nM
[45]
  IC50: > 8 nM
[46]
  IC50: > 8 nM
[47]
  IC50: > 8 nM
[48]
  IC50: > 8 nM
